One experiment relates to HAP1 MTAP-deleted. The experiment in a line: SDMA in-cell western assay, HAP1 MTAP-deleted cell line. To be noted: for IC50: Homo sapiens, HAP1 MTAP-deleted cell line; for MTAP Intact/Deleted Ratio: IC50 ratio HAP1 MTAP-intact / HAP1 MTAP-deleted. The class given is cell-based. Put shortly:
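These are IC50 values from an in-cell western measuring SDMA. The HAP1 cells used carry no MTAP, in contrast to the isogenic partner line with endogenous MTAP expression.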

Experiment [1] has as its target T1, PRMT5 (Homo sapiens, UniProt O14744).
T1 construct: purchased Viva (custom protein)
The experiment can be described thus: PRMT5 IC50 assay in the presence of SAM as cofactor. The class given is biochemical. Put shortly: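 Ki conversion: SAM arm, Ki=IC50/1.5; MTA arm, Ki=IC50/13.5. No-cofactor arm reported as IC50 only. Selectivity expressed as Ki(SAM)/Ki(MTA).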

Experiment [2] deals with T1, PRMT5. The experiment can be described thus: PRMT5 IC50 assay in the presence of MTA as cofactor. The class given is biochemical. The conditions noted are these: for IC50: PRMT5, MTA as cofactor; for SAM/MTA Ratio: ratio between Ki in the presence of SAM and Ki in the presence of MTA. The gist of the method: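 For the SAM-containing format, dividing IC50 by 1.5 yields Ki; for the MTA-containing format the divisor is 13.5. A third format without cofactor gives IC50 alone.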

The test system of another experiment is HAP1 MTAP-intact. The experiment in a line: SDMA in-cell western assay, HAP1 MTAP-intact cell line. The class given is cell-based. To be noted: Homo sapiens. The gist of the method:
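Potency reflects cellular SDMA reduction, detected by in-cell western, in HAP1 cells with or without MTAP (endogenous expression versus null).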

Experiment [3] addresses T1, PRMT5. The experiment can be described thus: PRMT5 IC50 assay with no cofactor. The class given is biochemical. The conditions noted are these: read-out: No Co-factor IC50. Put shortly:
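Potency against PRMT5 is compared across cofactor states, where IC50 equals Ki×1.5 with SAM present and Ki×13.5 with MTA present.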

T1 sequence (O14744 whole entry): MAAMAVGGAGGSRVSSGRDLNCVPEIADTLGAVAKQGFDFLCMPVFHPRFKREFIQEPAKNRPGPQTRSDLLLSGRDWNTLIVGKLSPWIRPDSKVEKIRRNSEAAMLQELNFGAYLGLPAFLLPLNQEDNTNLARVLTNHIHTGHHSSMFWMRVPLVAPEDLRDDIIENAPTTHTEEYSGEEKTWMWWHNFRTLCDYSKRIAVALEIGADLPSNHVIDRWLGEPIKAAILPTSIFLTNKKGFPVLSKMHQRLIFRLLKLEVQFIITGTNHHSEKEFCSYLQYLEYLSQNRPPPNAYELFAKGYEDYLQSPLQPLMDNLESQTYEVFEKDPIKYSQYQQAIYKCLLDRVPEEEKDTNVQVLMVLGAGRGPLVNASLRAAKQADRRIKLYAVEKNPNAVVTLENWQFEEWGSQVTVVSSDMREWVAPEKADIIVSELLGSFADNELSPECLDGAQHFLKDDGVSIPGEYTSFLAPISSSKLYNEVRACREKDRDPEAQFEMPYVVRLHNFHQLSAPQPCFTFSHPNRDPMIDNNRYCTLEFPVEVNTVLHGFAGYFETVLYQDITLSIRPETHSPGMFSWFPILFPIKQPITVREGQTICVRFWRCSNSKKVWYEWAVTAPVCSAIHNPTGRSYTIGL
T1 sequence (Q9BQA1 whole entry partner): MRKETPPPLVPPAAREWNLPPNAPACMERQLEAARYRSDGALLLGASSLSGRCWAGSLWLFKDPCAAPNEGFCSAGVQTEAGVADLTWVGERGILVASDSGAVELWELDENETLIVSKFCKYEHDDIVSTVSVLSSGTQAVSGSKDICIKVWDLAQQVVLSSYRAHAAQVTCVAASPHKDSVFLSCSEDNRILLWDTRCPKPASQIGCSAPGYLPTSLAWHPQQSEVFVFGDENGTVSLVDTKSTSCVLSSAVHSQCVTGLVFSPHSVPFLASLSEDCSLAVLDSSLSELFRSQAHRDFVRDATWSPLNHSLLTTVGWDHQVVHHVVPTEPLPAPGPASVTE

As a reminder, the IC50 is the point on the concentration scale where inhibition reaches its midpoint. Turning to `O=C(NC[C@H](O)CN1CCc2c(ccc(OCc3cnco3)c2Cl)C1)c1cc(NC2CCC2)nc(N2CCCCC2)c1` [Compound 305, (S)—N-(3-(5-chloro-6-(oxazol-5-ylmethoxy)-3N-dihydroisoquinolin-2(1H)-yl)-2-hydroxypropyl)-2-(cyclobutylamino)-6-(piperidin-1-yl)isonicotinamide], the IC50 was 1000 to 10000 nM in the experiment with HAP1 MTAP-deleted; 500 to 5000 nM at PRMT5 [1]; 500 to 5000 nM on PRMT5 [2]; at least 10000 nM in the experiment on HAP1 MTAP-intact; at least 5000 nM at PRMT5 [3]. The “MTAP Intact/Deleted Ratio” value with HAP1 MTAP-deleted is “C* (an IC50 ratio of less than 3 fold between the IC50 in the HAP1 MTAP-intact cell line and the HAP1 MTAP-deleted cell line)”. In addition, on PRMT5 [2], the “SAM/MTA Ratio” value was “A (a Ki ratio greater than or equal to 10 fold between the Ki in the presence of SAM and the Ki in the presence of MTA)”.
In the case of `CC(C)(C)N1CCN(c2cc(C(=O)NC[C@H](O)CN3CCc4cc(OCc5cnco5)ccc4C3)cc(NC3CCC3)n2)CC1` [Compound 306, (S)-2-(4-(tert-butyl)piperazin-1-yl)-6-(cyclobutylamino)-N-(2-hydroxy-3-(6-(oxazol-5-ylmethoxy)-3N-dihydroisoquinolin-2(1H)-yl)propyl)isonicotinamide], the IC50 in the experiment on HAP1 MTAP-deleted is at least 10000 nM; at PRMT5 [1] it was 50 to 500 nM; at PRMT5 [2], 50 to 500 nM; with HAP1 MTAP-intact, 1000 to 10000 nM; at PRMT5 [3], 500 to 5000 nM. Also, in the experiment on HAP1 MTAP-deleted, the “MTAP Intact/Deleted Ratio” value is “C* (an IC50 ratio of less than 3 fold between the IC50 in the HAP1 MTAP-intact cell line and the HAP1 MTAP-deleted cell line)”. The “SAM/MTA Ratio” value at PRMT5 [2] is “A (a Ki ratio greater than or equal to 10 fold between the Ki in the presence of SAM and the Ki in the presence of MTA)”.
As for `CC(C)Cc1cc(C(=O)NC[C@H](O)CN2CCc3cc(OCc4cnco4)ccc3C2)cc(NC2CCC2)n1` [Compound 307, (S)-2-(cyclobutylamino)-N-(2-hydroxy-3-(6-(oxazol-5-ylmethoxy)-3,4-dihydroisoquinolin-2(1H)-yl)propyl)-6-isobutylisonicotinamide], the IC50 in the experiment with HAP1 MTAP-deleted was below 1000 nM; at PRMT5 [1] it was 500 to 5000 nM; on PRMT5 [2], 50 to 500 nM; in the experiment on HAP1 MTAP-intact, 1000 to 10000 nM; on PRMT5 [3], at least 5000 nM. For the same compound, the “MTAP Intact/Deleted Ratio” value with HAP1 MTAP-deleted is “C* (an IC50 ratio of less than 3 fold between the IC50 in the HAP1 MTAP-intact cell line and the HAP1 MTAP-deleted cell line)”. Also, the “SAM/MTA Ratio” value at PRMT5 [2] is “A (a Ki ratio greater than or equal to 10 fold between the Ki in the presence of SAM and the Ki in the presence of MTA)”.
Turning to `CC(C)(C)c1cc(C(=O)NC[C@H](O)CN2CCc3cc(OCc4cnco4)ccc3C2)cc(NC2CCC2)n1` [Compound 308, (S)-2-(tert-butyl)-6-(cyclobutylamino)-N-(2-hydroxy-3-(6-(oxazol-5-ylmethoxy)-3,4-dihydroisoquinolin-2(1H)-yl)propyl)isonicotinamide], the IC50 is at least 10000 nM with HAP1 MTAP-deleted; 500 to 5000 nM on PRMT5 [1]; 500 to 5000 nM on PRMT5 [2]; at least 10000 nM in the experiment with HAP1 MTAP-intact; at least 5000 nM at PRMT5 [3]. Besides, in the experiment on HAP1 MTAP-deleted, the “MTAP Intact/Deleted Ratio” value is “C* (an IC50 ratio of less than 3 fold between the IC50 in the HAP1 MTAP-intact cell line and the HAP1 MTAP-deleted cell line)”. Besides, on PRMT5 [2], the “SAM/MTA Ratio” value is “A (a Ki ratio greater than or equal to 10 fold between the Ki in the presence of SAM and the Ki in the presence of MTA)”.
With `CCC(=O)N1CCN(c2nc(NC3COC3)cc(C(=O)NC[C@H](O)CN3CCc4cc(OCc5cnco5)ccc4C3)n2)CC1` [Compound 309, (S)—N-(2-hydroxy-3-(6-(oxazol-5-ylmethoxy)-3,4-dihydroisoquinolin-2(1H)-yl)propyl)-6-(oxetan-3-ylamino)-2-(4-propionylpiperazin-1-yl)pyrimidine-4-carboxamide], the IC50 is 1000 to 10000 nM with HAP1 MTAP-deleted; 50 to 500 nM at PRMT5 [1]; 50 to 500 nM on PRMT5 [2]; at least 10000 nM in the experiment on HAP1 MTAP-intact; 500 to 5000 nM on PRMT5 [3]. Also, the “MTAP Intact/Deleted Ratio” value with HAP1 MTAP-deleted is “C* (an IC50 ratio of less than 3 fold between the IC50 in the HAP1 MTAP-intact cell line and the HAP1 MTAP-deleted cell line)”. Besides, the “SAM/MTA Ratio” value on PRMT5 [2] is “A (a Ki ratio greater than or equal to 10 fold between the Ki in the presence of SAM and the Ki in the presence of MTA)”.
Take `COc1cc(C(=O)NC[C@H](O)CN2CCc3cc(OCc4cnco4)ccc3C2)cc(NC2CCC2)n1` [Compound 310, (S)-2-(cyclobutylamino)-N-(2-hydroxy-3-(6-(oxazol-5-ylmethoxy)-3,4-dihydroisoquinolin-2(1H)-yl)propyl)-6-methoxyisonicotinamide]: the IC50 was 1000 to 10000 nM in the experiment with HAP1 MTAP-deleted; 500 to 5000 nM at PRMT5 [1]; 50 to 500 nM at PRMT5 [2]; 1000 to 10000 nM with HAP1 MTAP-intact; at least 5000 nM at PRMT5 [3]. Further, the “MTAP Intact/Deleted Ratio” value in the experiment with HAP1 MTAP-deleted is “B* (an IC50 ratio greater than or equal to 3 fold but lower than 10 fold between the IC50 in the HAP1 MTAP-intact cell line and the HAP1 MTAP-deleted cell line)”. For the same compound, at PRMT5 [2], the “SAM/MTA Ratio” value was “A (a Ki ratio greater than or equal to 10 fold between the Ki in the presence of SAM and the Ki in the presence of MTA)”.
For `O=C(NC[C@H](O)CN1CCc2c(ccc(OCc3cnco3)c2Cl)C1)c1ccnc(NC2CCC(F)CC2)c1` (stereo partly drawn) [Compound 311, (S)—N-(3-(5-chloro-6-(oxazol-5-ylmethoxy)-3N-dihydroisoquinolin-2(1H)-yl)-2-hydroxypropyl)-2-((4-fluorocyclohexyl)amino)isonicotinamide], the IC50 was at least 10000 nM in the experiment on HAP1 MTAP-deleted; 50 to 500 nM at PRMT5 [1]; 50 to 500 nM on PRMT5 [2]; at least 10000 nM with HAP1 MTAP-intact; at least 5000 nM on PRMT5 [3]. Further, the “MTAP Intact/Deleted Ratio” value with HAP1 MTAP-deleted was “C* (an IC50 ratio of less than 3 fold between the IC50 in the HAP1 MTAP-intact cell line and the HAP1 MTAP-deleted cell line)”. Besides, the “SAM/MTA Ratio” value on PRMT5 [2] was “A (a Ki ratio greater than or equal to 10 fold between the Ki in the presence of SAM and the Ki in the presence of MTA)”.
Regarding `CCCN(C)c1nc(NC2COC2)cc(C(=O)NC[C@H](O)CN2CCc3c(ccc(OCc4cnco4)c3Cl)C2)n1` [Compound 312, (S)—N-(3-(5-chloro-6-(oxazol-5-ylmethoxy)-3N-dihydroisoquinolin-2(1H)-yl)-2-hydroxypropyl)-2-(methyl(propyl)amino)-6-(oxetan-3-ylamino)pyrimidine-4-carboxamide], the IC50 in the experiment on HAP1 MTAP-deleted is 1000 to 10000 nM; at PRMT5 [1] it was 50 to 500 nM; at PRMT5 [2], 50 to 500 nM; in the experiment on HAP1 MTAP-intact it was at least 10000 nM; at PRMT5 [3] it was 500 to 5000 nM. The “MTAP Intact/Deleted Ratio” value in the experiment with HAP1 MTAP-deleted is “B* (an IC50 ratio greater than or equal to 3 fold but lower than 10 fold between the IC50 in the HAP1 MTAP-intact cell line and the HAP1 MTAP-deleted cell line)”. Besides, on PRMT5 [2], the “SAM/MTA Ratio” value was “A (a Ki ratio greater than or equal to 10 fold between the Ki in the presence of SAM and the Ki in the presence of MTA)”.
Turning to `CC(C)C(=O)N1CCN(c2nc(NC3COC3)cc(C(=O)NC[C@H](O)CN3CCc4cc(OCc5cnco5)ccc4C3)n2)CC1` [Compound 313], the IC50 with HAP1 MTAP-deleted fell in the range of 1000 to 10000 nM; at PRMT5 [1], 50 to 500 nM; on PRMT5 [2] it was 50 to 500 nM; in the experiment with HAP1 MTAP-intact, 1000 to 10000 nM; on PRMT5 [3] it was 500 to 5000 nM. Further, the “MTAP Intact/Deleted Ratio” value in the experiment on HAP1 MTAP-deleted was “C* (an IC50 ratio of less than 3 fold between the IC50 in the HAP1 MTAP-intact cell line and the HAP1 MTAP-deleted cell line)”. Also, the “SAM/MTA Ratio” value on PRMT5 [2] is “A (a Ki ratio greater than or equal to 10 fold between the Ki in the presence of SAM and the Ki in the presence of MTA)”.

Values taken from patent US11986471B2, “Compounds and methods of use” (Tango Therapeutics, Inc., priority 2018, dated 2024).
